Nine compounds from US4897406A, “Rhodanine derivatives and pharmaceutical compositions” (Nisshin Flour Milling Co., Ltd., priority 1987, dated 1990) can be followed below.

One data set deals with SRS-A. In words: Inhibitory activity on biosynthesis and release of chemical mediator (SRS-A), bioassay using excised ileum. Further details: species or system guinea pigs. Conditions: Conc. 10^-5 M. The protocol: The compounds were evaluated for inhibitory activity on biosynthesis and release of a chemical mediator according to the method described by S. Watanabe-Kohno et al [J. Immunol., 125, 946 (1980)] and J. Augastein et al [Nature, 245, 215 (1973)]. In this test, SRS-A was used as a chemical mediator.
The chemical mediator contained in the reaction solution was determined according to bioassay using excised ileum of guinea pigs.
Percent Inhibition (%)=(1-A'/A)×100
A'=contraction level by the reaction solution treated with test compound
A=contraction level by the control reaction solution

Another data set deals with rats. As to the kind of experiment: Toxicity to rats by oral administration. The class given is in vivo. As to conditions: 1000 mg/kg by oral administration.
The subject of data set [1] is contraction of excised bronchi of guinea pigs by histamine. In words: Inhibition of contraction of excised bronchi of guinea pigs by histamine. As to conditions: 10^-5 M.
The test system of data set [2] is excised bronchi of guinea pigs by the action of leukotriene D4. As to the kind of experiment: Inhibitory activity on leukotrienes (contraction induced by leukotriene D4 in excised guinea pig bronchi). Conditions: Conc. 10^-5 M, treatment before 10 minutes. The protocol: The compounds were evaluated for inhibitory activity on leukotrienes in the following test.
In this test, contraction was induced in excised bronchi of guinea pigs by the action of leukotriene D4, and inhibitory action of the present compounds after treatment before 10 minutes was measured and recorded via a transducer.

The next data set relates to PGF2α. As to the kind of experiment: Inhibition of contraction of excised bronchi of guinea pigs by PGF2α. Conditions: 10^-5 M.

In the case of `COc1ccc(CCC(C)=C2SC(=S)NC2=O)cc1OC` (single isomer, unassigned) [Isomer A of Example 12, 5-[3-(3,4-Dimethoxyphenyl)-1-methylpropylidene]-4-oxo-2-thioxothiazolidine], the “Percent Inhibition (biosynthesis and release of chemical mediator)” value with SRS-A came out at 76.2%. For the same compound, in the data set with rats, the mortality result is recorded as “no mortality was observed”. Further, the “inhibitory activity on contraction by histamine” value in data set [1] was 60-90%. Besides, in data set [2], the “Percent Inhibition (inhibitory activity on leukotrienes)” value was 100.0%. In addition, the “inhibitory activity on contraction by PGF2α” value (“inhibitory activity … by PGF2α” below) in the data set on PGF2α is reported as 60-90%.

For the compound `CCCC(C=Cc1ccc(C(=O)O)cc1)=C1SC(=S)NC1=O` (single isomer, unassigned) [Isomer A of Example 17, 4-[3-(4-Oxo-2-thioxo-5-thiazolidinylidene)-1-hexen-1-yl]benzoic acid], the “Percent Inhibition (inhibitory activity on leukotrienes)” value in data set [2] came out at 84.7%.

Consider `COc1ccc(C=CC(C)=C2SC(=S)NC2=O)cc1OC` (single isomer, unassigned) [Isomer B of Example 1], for which the “Percent Inhibition (biosynthesis and release of chemical mediator)” value in the data set on SRS-A was found to be 58.0%. The “inhibitory activity on contraction by histamine” value in data set [1] was 60-90%. Also, the “Percent Inhibition (inhibitory activity on leukotrienes)” value in data set [2] is 82.4%. Further, the “inhibitory activity … by PGF2α” value in the data set on PGF2α is on record as 60-90%.

`COc1ccc(CCC(C)=C2SC(=S)NC2=O)cc1OC` (single isomer, unassigned) [Isomer B of Example 12, 5-[3-(3,4-Dimethoxyphenyl)-1-methylpropylidene]-4-oxo-2-thioxothiazolidine]: the “Percent Inhibition (biosynthesis and release of chemical mediator)” value in the data set on SRS-A was determined as 70.6%. For the same compound, the mortality entry in the data set with rats is listed as “no mortality was observed”. Moreover, the “inhibitory activity on contraction by histamine” value in data set [1] is 60-90%. Moreover, the “Percent Inhibition (inhibitory activity on leukotrienes)” value in data set [2] stood at 97.9%. In the data set on PGF2α, the “inhibitory activity … by PGF2α” value is 60-90%.

With `CC(C=Cc1cccs1)=C1SC(=S)NC1=O` (single isomer, unassigned) [Isomer B of Example 15, 5-[3-(2-Thienyl)-1-methyl-2-propenylidene]-4-oxo-2-thioxothiazolidine], in data set [1], the “inhibitory activity on contraction by histamine” value is given as 60-90%. In addition, the “inhibitory activity … by PGF2α” value in the data set with PGF2α is 60-90%.

Turning to `CCCC(C=Cc1ccc(C(=O)O)cc1)=C1SC(=S)NC1=O` (single isomer, unassigned) [Isomer B of Example 17, 4-[3-(4-Oxo-2-thioxo-5-thiazolidinylidene)-1-hexen-1-yl]benzoic acid], in data set [2], the “Percent Inhibition (inhibitory activity on leukotrienes)” value is recorded as 79.8%.

As to `COc1ccc(C=CC(CCCC(=O)O)=C2SC(=S)NC2=O)cc1OC` (single isomer, unassigned) [Isomer B of Example 19, 7-(3,4-dimethoxyphenyl)-5-(4-oxo-2-thioxo-5-thiazolidinilydene)-6-heptenoic acid], the “Percent Inhibition (inhibitory activity on leukotrienes)” value in data set [2] is given as 85.1%.

`CCOC(=O)CCC(C=Cc1ccc(OC)c(OC)c1)=C1SC(=S)NC1=O` [Compound of Example 14, Ethyl 6-(3,4-dimethoxyphenyl)-4-(4-oxo-2-thioxo-5-thiazolidinylidene)-5-hexenoate]: the “inhibitory activity on contraction by histamine” value in data set [1] was 60-90%. For the same compound, in data set [2], the “Percent Inhibition (inhibitory activity on leukotrienes)” value came out at 98.1%. Besides, the “inhibitory activity … by PGF2α” value in the data set on PGF2α was 60-90%.

With `CCOC(=O)CCCC(C=Cc1ccc(OC)c(OC)c1)=C1SC(=S)NC1=O` [Ethyl ester compound of Example 19, ethyl 7(3,4-dimethoxyphenyl)-5-(4-oxo-2-thioxo-5-thiazolidinilydene)-6-heptenoate], the “Percent Inhibition (inhibitory activity on leukotrienes)” value in data set [2] is given as 90.5%.
